Test results taken from patent US20240287048A1, “SUBSTITUTED ACYL SULFONAMIDES FOR TREATING CANCER” (The Broad Institute, Inc., priority 2020, published 2024).

Legend:
[1] = target: T1, KAT6B (Homo sapiens, UniProt Q8WYB5); experiment: Kat6b activity assay (TR-FRET, acetylation of biotinylated histone H4 peptide); assay type: biochemical; settings: recombinant human GST-tagged Kat6b (431-end), 30 mins at 22° C., read-out: KAT6B activity assay IC50 [mol/l] (arithmetic mean)
T1 construct: fused on or other part: N-terminal GST tag
T1 sequence (Q8WYB5 723-2073 limits assumed): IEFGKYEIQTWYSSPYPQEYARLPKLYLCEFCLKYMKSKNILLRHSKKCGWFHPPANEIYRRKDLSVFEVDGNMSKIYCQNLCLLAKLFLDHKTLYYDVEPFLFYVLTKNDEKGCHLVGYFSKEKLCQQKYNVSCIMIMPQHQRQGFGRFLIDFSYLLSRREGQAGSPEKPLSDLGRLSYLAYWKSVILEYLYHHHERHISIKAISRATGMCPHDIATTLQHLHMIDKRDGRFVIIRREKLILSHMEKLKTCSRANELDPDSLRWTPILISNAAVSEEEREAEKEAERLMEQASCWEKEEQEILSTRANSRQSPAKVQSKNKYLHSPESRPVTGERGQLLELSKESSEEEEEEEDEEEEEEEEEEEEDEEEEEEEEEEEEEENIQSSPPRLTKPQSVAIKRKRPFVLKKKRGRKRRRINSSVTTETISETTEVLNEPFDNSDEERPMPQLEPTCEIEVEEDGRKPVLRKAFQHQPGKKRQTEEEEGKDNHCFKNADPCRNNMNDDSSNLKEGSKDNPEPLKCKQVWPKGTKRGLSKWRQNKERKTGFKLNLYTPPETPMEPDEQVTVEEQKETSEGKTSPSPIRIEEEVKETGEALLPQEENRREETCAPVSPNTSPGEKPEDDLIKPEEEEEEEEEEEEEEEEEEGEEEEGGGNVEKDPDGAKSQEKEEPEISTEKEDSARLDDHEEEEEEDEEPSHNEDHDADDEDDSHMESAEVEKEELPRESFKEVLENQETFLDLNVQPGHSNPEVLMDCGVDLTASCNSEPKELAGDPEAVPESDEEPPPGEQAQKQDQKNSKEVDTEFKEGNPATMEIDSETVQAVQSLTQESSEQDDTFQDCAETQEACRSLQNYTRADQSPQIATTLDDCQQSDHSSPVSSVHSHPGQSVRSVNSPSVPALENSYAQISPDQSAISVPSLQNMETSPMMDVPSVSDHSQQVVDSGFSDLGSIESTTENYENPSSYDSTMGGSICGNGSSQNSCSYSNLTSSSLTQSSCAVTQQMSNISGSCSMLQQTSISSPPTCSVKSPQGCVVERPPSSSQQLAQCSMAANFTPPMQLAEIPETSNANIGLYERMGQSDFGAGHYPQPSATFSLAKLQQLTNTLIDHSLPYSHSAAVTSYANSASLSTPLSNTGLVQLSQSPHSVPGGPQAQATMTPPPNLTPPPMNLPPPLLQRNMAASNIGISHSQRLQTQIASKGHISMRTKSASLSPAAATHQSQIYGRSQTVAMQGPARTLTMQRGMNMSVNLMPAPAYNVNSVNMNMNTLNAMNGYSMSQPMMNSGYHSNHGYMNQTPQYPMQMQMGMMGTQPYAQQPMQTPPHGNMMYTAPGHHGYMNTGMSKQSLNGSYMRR
Description: Kat6b inhibitory activities of the compounds described in the present invention were quantified using a Fluorescence Resonance Energy Transfer (TR-FRET) assay which measures acetylation of a synthetic, biotinylated Histone-H4-derived peptide by the enzyme.
Recombinant human GST-tagged Kat6b protein (431-end, N-terminal GST-tag), purified from Baculovirus-infected insect cells (Sf9), was purchased from SignalChem (#K315-381BG). Histone H4 peptide (amino acids 1-24, […]-VLRD-K(Btn)-amide), which was used as substrate, was synthesized by Biosyntan GmbH, Berlin, Germany. Acetyl Coenzyme A was purchased from Sigma-Aldrich (#A-2056).
Kat6b was incubated for 30 mins at 22° C. in the presence of different concentrations of test substances (0 μM, and within the range 0.01-20 μM) in assay buffer [25 mM Tris/HCl pH 8, 1 mM EGTA, 2.5 mM Glutathion, 0.02% Chicken Albumin, 0.05% Pluronic F127, 25 mM NaCl, 500 nM H4 peptide and 600 nM Acetyl Coenzyme A].
The reaction was stopped by addition of Detection Solution (25 mM HEPES pH 7.5, 0.1% BSA, 22 nM SAXL665 (Cisbio #610SAXLE), 100 μM Anacardic Acid (Enzo #ALX-270-381), 1 nM Anti-Histone H4 (ACETYL K8) Antibody (ABCAM #AB15823), 0.5 nM Anti-Rabbit IgG Eu (Perkin Elmer #AD0083).
The fluorescence emission at 620 nm and 665 nm after excitation at 330-350 nm was measured in a TR-FRET measuring instrument, for instance a Rubystar or a Pherastar (both from BMG Lab Technologies, Offenburg, Germany) or a Viewlux (Perkin-Elmer). The ratio of the emission at 665 nm and at […] was used as indicator of the amount of acetylated peptide.
The resulting data (ratio) were normalized, taking 0% inhibition as the mean value of control measurements where all reagents were included. In this case 50 nl DMSO were used instead of compounds. […] IC50 values were determined by regression analysis based on a 4 parameter equation (minimum, maximum, ICM, Hill; Y=Max+(Min−Max)/(1+(X/ICso) Hill) using the Screener Software (Genedata).

[2] = system: ZR-75-1 cells; experiment: Proliferation assay in ZR-75-1 cells; assay type: cell-based; settings: Homo sapiens, 144 h, Alamar Blue, read-out: ZR75-1 proliferation assay, EC50[M] (arithmetic mean)
How it was run: (§1)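 KAT6A-amplified ZR-75-1 cells (RPMI 1640, 2.5% FBS) and KAT6A-low MDA-MB-436 cells (DMEM/Ham's F12, 2.5% FBS) were seeded at 3000 cells/well. Treatment lasted 144 h at 37 °C, 5% CO2, in triplicate. Viability was read by Alamar Blue (2 h) fluorescence at […].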

[3] = system: E. coli wp2 (E. coli wp2 [pKM101] and E. coli wp2 uvrA, combined exposure); experiment: Bacterial reverse gene mutation test Ames MPF Penta I, E. coli wp2; assay type: cell-based
Description: (§2) The employed commercial assay Ames MPF Penta I comprises the histidine auxotrophic Salmonella tester strains TA98, TA100, TA1535, TA1537 and two tryptophan auxotrophic tester strains E. coli wp2 (E. coli wp2 [pKM101] and E. coli wp2 uvrA, combined exposure). These strains meet the requirements of the OECD guideline 471 for testing chemicals.
(§3) Bacterial strains were exposed to various concentrations of the test compounds in a histidine (His) or tryptophane (Trp) deficient medium. As recommended by ICH S2(R1) guideline, the test was conducted in two assay conditions, with and without addition of microsomal enzymes (S9 mix), taking the potential formation of DNA reactive metabolites via xenobiotic biotransformation into account.
(§4) The potential of the test compound to induce gene mutations is assessed by comparing the control with the test compounds treated bacterial cultures.

[4] = system: MDA-MB-436 cells; experiment: Proliferation assay in MDA-MB-436 cells (negative control cell line); assay type: cell-based; settings: Homo sapiens, 144 h, Alamar Blue, read-out: MDA-MB-436 proliferation assay, EC50[M] (arithmetic mean)
How it was run: as §1

[5] = system: Salmonella tester strain TA98; experiment: Bacterial reverse gene mutation test Ames MPF Penta I, TA98; assay type: cell-based
Description: as §2, §3, §4

| SMILES | IC50 [1] [µM] | EC50 [2] [M] | Result of the bacterial reverse gene mutation test Ames MPF Penta I, E. coli wp2 ([3]; with addition of S9 mix) | Result of the bacterial reverse gene mutation test Ames MPF Penta I, E. coli wp2 ([3]; without addition of S9 mix) | EC50 [4] [M] | Result of the bacterial reverse gene mutation test Ames MPF Penta I, TA98 ([5]; with addition of S9 mix) | Result of the bacterial reverse gene mutation test Ames MPF Penta I, TA98 ([5]; without addition of S9 mix) |
| --- | --- | --- | --- | --- | --- | --- | --- |
| CCOc1ccccc1S(=O)(=O)NC(=O)c1cc2ccc(C(C)C)cc2o1 [Example 55, N-(2-Ethoxybenzenesulfonyl)-6-(propan-2-yl)-1-benzofuran-2-carboxamide] | 0.538 | 1.27e-05 | negative | negative | > 2e-05 | negative | negative |
| O=C(NS(=O)(=O)c1ccccc1-c1ccccc1)c1cc2ccc(C3CC3)cc2o1 [Example 16, N-([1,1′-biphenyl]-2-sulfonyl)-6-cyclopropyl-1-benzofuran-2-carboxamide] | 0.104 | 5.93e-06 | negative | negative | > 2e-05 | negative | negative |
